Assay results as given in patent US4705777A, “Cationic oligopeptides having microbicidal activity” (priority 1985, dated 1987).

Key:
[1] = tested on: S. albus; test: Antibacterial action, % killing (Table II), S. albus; format: cell-based, Staphylococcus albus; conditions: 50 μg/ml peptide, 10^7 bacterial cells/ml, 20 min, 37°
Experimental: (§1) To test antibacterial action of the polypeptides, the following protocol was employed. Various species at 10^7 bacterial cells/ml are incubated for 20 min at 37° with 50 μg/ml of the candidate peptide. Colony counts (viable organisms) are made at the outset of the incubation--beforeaddition of the candidate peptide--and after 20 min of incubation with the candidate peptide.

[2] = tested on: S. aureus 502A; test: Antibacterial action, % killing (Table II), S. aureus 502A; format: cell-based, Staphylococcus aureus; conditions: 50 μg/ml peptide, 10^7 bacterial cells/ml, 20 min, 37°
Experimental: as §1

[3] = tested on: L. monocytogenes; test: Antibacterial action, % killing (Table II), L. monocytogenes; format: cell-based, Listeria monocytogenes; conditions: 50 μg/ml peptide, 10^7 bacterial cells/ml, 20 min, 37°
Experimental: as §1

[4] = tested on: E. coli; test: Antibacterial action, % killing (Table II), E. coli; format: cell-based, Escherichia coli; conditions: 50 μg/ml peptide, 10^7 bacterial cells/ml, 20 min, 37°
Experimental: as §1

[5] = tested on: Ps. aeruginosa; test: Antibacterial action, % killing (Table II), Ps. aeruginosa; format: cell-based, Pseudomonas aeruginosa; conditions: 50 μg/ml peptide, 10^7 bacterial cells/ml, 20 min, 37°
Experimental: as §1

[6] = tested on: Streptococcus Group B; test: Antibacterial action, % killing (Table II), Streptococcus Group B; format: cell-based; conditions: 50 μg/ml peptide, 10^7 bacterial cells/ml, 20 min, 37°
Experimental: as §1

[7] = tested on: Staphylococcus aureus 566; test: Antibacterial activity of rabbit granulocyte peptides (Table III), S. aureus 566; format: cell-based; conditions: 50 μg/ml, 20 min, 37° C., 10 mM sodium phosphate buffer pH 7.4
Experimental: (§2) The procedure parallels that reported in Lehrer et al., Infection and Immunity (1983) 42:10-14. […] The subculture was grown at 37° C. for 4 h with shaking to provide mid-logarithmic phase organisms that were washed twice with buffer by centrifugation (2000×g, 10 min), and then quantitated spectrophotometrically at 620 nm, with reference to previously established CFU/Optical Density relationships. Bacteria were suspended and experiments were performed in 10 mM sodium phosphate buffer, pH 7.4. In some experiments, buffers were supplemented with 0.14 M NaCl ("high" ionic strength). […] In some experiments, 10 mM phosphate buffer with a pH of 5.8 and conductivity of 1.36 mMHO was used. Peptide "stock solutions" were prepared at 500 μg/ml (microbiuret assay) in 0.01% acetic acid, and stored at -20° C. Typically, incubation mixtures contained 1×10^5 bacterial CFU and 5 μg of peptide in 100 μl of buffer. After incubation for 20 min at 37° C., 900 μl of the same buffer was added, and two additional serial tenfold dilutions were made with that buffer. Duplicate 100 μl aliquots from the three serial dilutions were spread over appropriate nutrient agar plates and incubated for 24-72 h to insure full colony development. Killing of microorganisms was expressed as the logarithm10 No /N, where No represented the initial colony count and N represented the colony count after incubation with peptide. There was no significant alteration in colony count when any of the test organisms were exposed to peptide-free buffer for 20 min.

[8] = tested on: Staphylococcus aureus 502A; test: Antibacterial activity of rabbit granulocyte peptides (Table III), S. aureus 502A; format: cell-based; conditions: 50 μg/ml, 20 min, 37° C., 10 mM sodium phosphate buffer pH 7.4
Experimental: as §2

[9] = tested on: Staphylococcus aureus J.F.; test: Antibacterial activity of rabbit granulocyte peptides (Table III), S. aureus J.F.; format: cell-based; conditions: 50 μg/ml, 20 min, 37° C., 10 mM sodium phosphate buffer pH 7.4
Experimental: as §2

[10] = tested on: Staphylococcus epidermidis UCLA-622; test: Antibacterial activity of rabbit granulocyte peptides (Table III), S. epidermidis; format: cell-based; conditions: 50 μg/ml, 20 min, 37° C., 10 mM sodium phosphate buffer pH 7.4
Experimental: as §2

[11] = tested on: Streptococcus pneumoniae Type III; test: Antibacterial activity of rabbit granulocyte peptides (Table III), S. pneumoniae; format: cell-based; conditions: 50 μg/ml, 20 min, 37° C., 10 mM sodium phosphate buffer pH 7.4
Experimental: as §2

[12] = tested on: Streptococcus agalactiae Type-I-A; test: Antibacterial activity of rabbit granulocyte peptides (Table III), S. agalactiae Type-I-A; format: cell-based; conditions: 50 μg/ml, 20 min
Experimental: as §2

[13] = tested on: Streptococcus agalactiae Type IIIU; test: Antibacterial activity of rabbit granulocyte peptides (Table III), S. agalactiae Type IIIU; format: cell-based; conditions: 50 μg/ml, 20 min, 37° C., 10 mM sodium phosphate buffer pH 7.4
Experimental: as §2

[14] = tested on: Listeria monocytogenes 450; test: Antibacterial activity of rabbit granulocyte peptides (Table III), L. monocytogenes; format: cell-based; conditions: 50 μg/ml, 20 min
Experimental: as §2

[15] = tested on: Pseudomonas aeruginosa PAO 579; test: Antibacterial activity of rabbit granulocyte peptides (Table III), P. aeruginosa; format: cell-based; conditions: 50 μg/ml, 20 min
Experimental: as §2

[16] = tested on: Escherichia coli ATCC 29648; test: Antibacterial activity of rabbit granulocyte peptides (Table III), E. coli; format: cell-based; conditions: 50 μg/ml, 20 min, 37° C., 10 mM sodium phosphate buffer pH 7.4
Experimental: as §2

[17] = tested on: Klebsiella pneumoniae ATCC 13883; test: Antibacterial activity of rabbit granulocyte peptides (Table III), K. pneumoniae; format: cell-based; conditions: 50 μg/ml, 20 min
Experimental: as §2

[18] = tested on: Serratia marcescens; test: Antibacterial activity of rabbit granulocyte peptides (Table III), S. marcescens; format: cell-based; conditions: 50 μg/ml, 20 min, 37° C., 10 mM sodium phosphate buffer pH 7.4
Experimental: as §2

[19] = tested on: Hemophilus influenzae Type 3A; test: Antibacterial activity of rabbit granulocyte peptides (Table III), H. influenzae; format: cell-based; conditions: 50 μg/ml, 20 min, 37° C., 10 mM sodium phosphate buffer pH 7.4
Experimental: as §2

[20] = tested on: Bordetella bronchiseptica UCLA-342; test: Antibacterial activity of rabbit granulocyte peptides (Table III), B. bronchiseptica; format: cell-based; conditions: 50 μg/ml, 20 min, 37° C., 10 mM sodium phosphate buffer pH 7.4
Experimental: as §2

[21] = 37° C., 10 mM sodium phosphate buffer pH 7.4
[22] = buffer pH 7.4 supplemented with 0.14 M NaCl

val val cys ala cys arg arg ala leu cys leu pro leu glu arg arg ala gly phe cys arg ile arg gly arg ile his pro leu cys cys arg arg [NP-2]
% Killing, S. albus [1]: B (90-99% killing) | % Killing, S. aureus 502A [2]: D (<50% killing) | % Killing, L. monocytogenes [3]: A (>99% killing) | % Killing, E. coli [4]: B (90-99% killing) | % Killing, Ps. aeruginosa [5]: A (>99% killing) | % Killing, Streptococcus Group B [6]: C (50-90% killing) | Bactericidal activity log10 No /N, Staphylococcus aureus 566 [7]: > 4.1 log10 | Bactericidal activity log10 No /N, Staphylococcus aureus 502A [8]: 2.4 log10 | Bactericidal activity log10 No /N, Staphylococcus aureus J.F. [9]: 2.9 log10 | Bactericidal activity log10 No /N, Staphylococcus epidermidis UCLA-622 [10]: > 4.1 log10 | Bactericidal activity log10 No /N, Streptococcus pneumoniae Type III [11]: > 3.5 log10 | Bactericidal activity log10 No /N, Streptococcus agalactiae Type 1A, pH 5.8 ([12]; 10 mM phosphate buffer pH 5.8): 0.1 log10 | Bactericidal activity log10 No /N, Streptococcus agalactiae Type-I-A [12, 21]: 2.0 log10 | Bactericidal activity log10 No /N, Streptococcus agalactiae Type 1A, "High" ionic strength [12, 22]: 0.1 log10 | Bactericidal activity log10 No /N, Streptococcus agalactiae Type IIIU [13]: 2.9 log10 | Bactericidal activity log10 No /N, Listeria monocytogenes 450, pH 5.8 ([14]; 10 mM phosphate buffer pH 5.8): 0.1 log10 | Bactericidal activity log10 No /N, Listeria monocytogenes 450 [14, 21]: 2.1 log10 | Bactericidal activity log10 No /N, Listeria monocytogenes 450, "High" ionic strength [14, 22]: 0.2 log10 | Bactericidal activity log10 No /N, Pseudomonas aeruginosa PAO 579, pH 5.8 ([15]; 10 mM phosphate buffer pH 5.8): 0.2 log10 | Bactericidal activity log10 No /N, Pseudomonas aeruginosa PAO 579 [15, 21]: 3.2 log10 | Bactericidal activity log10 No /N, Pseudomonas aeruginosa PAO 579, "High" ionic strength [15, 22]: 0.0 log10 | Bactericidal activity log10 No /N, Escherichia coli ATCC 29648 [16]: 0.8 log10 | Bactericidal activity log10 No /N, Klebsiella pneumoniae ATCC 13883, pH 5.8 ([17]; 10 mM phosphate buffer pH 5.8): 0.5 log10 | Bactericidal activity log10 No /N, Klebsiella pneumoniae ATCC 13883 [17, 21]: 1.1 log10 | Bactericidal activity log10 No /N, Klebsiella pneumoniae ATCC 13883, "High" ionic strength [17, 22]: 0.0 log10 | Bactericidal activity log10 No /N, Serratia marcescens [18]: 1.0 log10 | Bactericidal activity log10 No /N, Hemophilus influenzae Type 3A [19]: 2.0 log10 | Bactericidal activity log10 No /N, Bordetella bronchiseptica UCLA-342 [20]: 0.1 log10
